Experimental data: patent US20140163050A1, “Use of 1H-quinazoline-2,4-diones” (priority 2011, published 2014)
Several values for one entry are separate records, joined by “and”; a condition that tells them apart may be missing. Equal entries are not always repeated. Entries after “also recorded” stand apart in the source; their conditions may differ.

Key:
[1] = tested on: patients with PSE; test: IPS/PPR proof of concept study: suppression of PPR or reduction of SPR after single oral doses; assay type: in vivo, human; parameters: key to Maximum reduction of SPR: Overall reduction, Median: SPR steps (number of frequencies eliciting PPR), range 0-14; settings: for duration of maintained suppression of PPR: 2 individual patients; for PD effect of C7 / Effect maintained: reduction of SPR (≧3) / Effect maintained: suppression of PPR / Onset Time of reduction of SPR (≧3) / Onset Time of suppression of PPR: individual patients
Description: In patients with photosensitive epilepsy, a standardized photoparoxysmal response range (SPR) may be determined by performing the IPS with a standardized series of flash frequencies, for instance 14 frequencies from a range of 2 to 60 Hz. SPR is a dimensionless parameter and is defined as the number of frequencies (steps) between the lowest and highest frequencies, e.g. between 2 and 60 Hz, that consistently elicit a PPR. If 14 frequencies are tested, the minimum and maximum possible SPR values are 0 and 14. Zero means complete abolition of reactivity on any stimulation frequency, i.e. complete abolishment of the PPR. SPR is relatively stable for each patient and reflects the liability for seizures in daily life. The potential efficacy of an AED could be assessed by measuring hourly changes in the SPR after a single oral dose given to the PSE patients.
The study used the IPS/PPR paradigm. It was a multicenter, non-randomized, single blind, within-subject, placebo-controlled proof of concept study conducted to assess the effect of single oral doses of the compounded formula C-7 in suppressing the photoparoxysmal response (PPR) or reducing the standardized photoparoxysmal response range (SPR) in patients with PSE. Photosensitivity was detected using electroencephalography (EEG) measurements of subjects exposed to Intermittent Photic Stimulation (IPS). This EEG response was a photoparoxysmal response (PPR). For the purpose of the study, provocation of PPRs by IPS, not of seizures, was required. The SPR of each patient was the number of standard visual stimulation frequencies (in Hertz) that the patient was sensitive to, between the lower and upper thresholds. 14 frequencies were tested (from 2 to 60 Hertz). The time of onset and the duration of response (PPR suppression or SPR reduction) to the treatment with Compound C-7 in patients with PSE and the maximal reduction in SPR in patients with PSE were also evaluated.
Women of child-bearing potential (WOCBP) were asked to use acceptable methods of contraception. Patients with an SPR value of 3 or less at the screening and patients with no consistent PPR (less than 3 SPR steps difference between the two evaluations required) when stimulated by intermittent photic stimulation (IPS), as determined by comparison between screening and pre-dose Day 1, were excluded from the study. Furthermore subjects with history of status epilepticus and/or regular use of benzodiazepines as rescue medication, subjects with evidence or history of any medically significant cardiac, respiratory, hepatic, gastrointestinal, renal, hematologic, oncologic or progressive neurological disorder, requiring current medical intervention/therapy likely to have a significant impact on the outcome of this study, were also excluded.
There were three periods: a screening period for the assessment of patient's eligibility for participation in the study; a 3-day in hospital treatment period with single-blind dosing with placebo on days 1 and 3, and the compound of formula C-7 on day 2; and a study completion period consisting of a follow-up call by the medical investigator to the patient between day 10 and day 14 inclusive and a full study completion visit between day 29 and day 33 inclusive.
The dose of the compound of formula C-7 in Cohort studies I, II and III was 50, 100 and 15 mg respectively.

[2] = tested on: mouse; test: Oral bioavailability: in vivo orally active (audiogenic mouse test and/or MES test)
Description: The oral bioavailability was tested using the audiogenic mouse test (Audiogenic seizures, R. L. Collins; Chapter 14, pages: 347-372. In: Experimental Models of Epilepsy; By: Pupura, Penry, Tower, Woodbury, Walter, Raven Press, New York, 1972. Standard Book Number: 0-911216-26-X) and/or the MES test.

CC(C)c1cc2[nH]c(=O)n(NS(C)(=O)=O)c(=O)c2cc1-c1ccnn1C [Compound C-7, N-[7-Isopropyl-6-(2-methyl-2H-pyrazol-3-yl)-2,4-dioxo-1,4-dihydro-2H-quinazolin-3-yl]-methanesulfonamide]
magnitude of the post-treatment effect between doses ([1]; 15, 50, 100 mg): dose dependent | PD effect compared to C-7 50 and 100 mg dose groups ([1]; C-7 15 mg dose group): numerically markedly lower PD effect; also recorded: numerically lower but still measurable PD effect | proportion of subjects with suppression of PPR ([1]; C-7 15 mg dose group): 33% | patients with complete suppression of PPR ([1]; C-7 15 mg dose group (Cohort III), Day 2): 1 out of 3 and 1 of 3 | maintenance of SPR response and PPR suppression ([1]; C-7 15 mg group): none of the patients maintained the SPR response; also recorded: neither the SPR response nor suppression of PPR was maintained | onset of suppression of PPR post dosing ([1]; C-7 15 mg group, one patient, eye open only, not maintained): 2 h | Maximum reduction of SPR: Overall reduction, Mean (SD) ([1]; C-7 15 mg, eye closed, n=3): 6.7 (1.15) | Maximum reduction of SPR: Overall reduction, Median ([1]; C-7 15 mg, eye closed, n=3): 6.0 | Maximum reduction of SPR: Reduction from predose Day 2, Mean (SD) ([1]; C-7 15 mg, eye closed, n=3): 5.0 (3.61) | Maximum reduction of SPR: Reduction from predose Day 2, Median ([1]; C-7 15 mg, eye closed, n=3): 6.0 | Maximum reduction of SPR: Overall reduction, Mean (SD) ([1]; C-7 15 mg, eye closure, n=3): 8.0 (1.73) | Maximum reduction of SPR: Overall reduction, Median ([1]; C-7 15 mg, eye closure, n=3): 9.0 | Maximum reduction of SPR: Reduction from predose Day 2, Mean (SD) ([1]; C-7 15 mg, eye closure, n=3): 7.3 (2.89) | Maximum reduction of SPR: Reduction from predose Day 2, Median ([1]; C-7 15 mg, eye closure, n=3): 9.0 | Maximum reduction of SPR: Overall reduction, Mean (SD) ([1]; C-7 15 mg, eyes open, n=3): 4.0 (3.46) | Maximum reduction of SPR: Overall reduction, Median ([1]; C-7 15 mg, eyes open, n=3): 2.0 | Maximum reduction of SPR: Reduction from predose Day 2, Mean (SD) ([1]; C-7 15 mg, eyes open, n=3): 3.0 (4.36) | Maximum reduction of SPR: Reduction from predose Day 2, Median ([1]; C-7 15 mg, eyes open, n=3): 1.0 | AUECt on Day 2 compared to Day 1 ([1]; C-7 50 mg and 100 mg dose groups, all eye conditions): significantly lower | proportion of subjects with suppression of PPR ([1]; C-7 50 mg dose group): 50% | patients with complete suppression of PPR ([1]; C-7 50 mg dose group (Cohort I), Day 2): 3 of 6 | patients with reductions of the SPR range by at least 3 steps in at least one eye condition ([1]; C-7 50 mg dose group (Cohort I, 6 patients), Day 2): 6 patients | duration of maintained suppression of PPR ([1]; C-7 50 mg group): 2 h and 7 h | Maximum reduction of SPR: Overall reduction, Mean (SD) ([1]; C-7 50 mg, eye closed, n=6): 6.0 (2.37) | Maximum reduction of SPR: Overall reduction, Median ([1]; C-7 50 mg, eye closed, n=6): 6.0 | Maximum reduction of SPR: Reduction from predose Day 2, Mean (SD) ([1]; C-7 50 mg, eye closed, n=6): 5.0 (2.00) | Maximum reduction of SPR: Reduction from predose Day 2, Median ([1]; C-7 50 mg, eye closed, n=6): 5.0 | Maximum reduction of SPR: Overall reduction, Mean (SD) ([1]; C-7 50 mg, eye closure, n=6): 7.7 (3.01) | Maximum reduction of SPR: Overall reduction, Median ([1]; C-7 50 mg, eye closure, n=6): 8.5 | Maximum reduction of SPR: Reduction from predose Day 2, Mean (SD) ([1]; C-7 50 mg, eye closure, n=6): 6.5 (2.95) | Maximum reduction of SPR: Reduction from predose Day 2, Median ([1]; C-7 50 mg, eye closure, n=6): 7.5 | Maximum reduction of SPR: Overall reduction, Mean (SD) ([1]; C-7 50 mg, eyes open, n=6): 6.8 (2.99) | Maximum reduction of SPR: Overall reduction, Median ([1]; C-7 50 mg, eyes open, n=6): 7.5 | Maximum reduction of SPR: Reduction from predose Day 2, Mean (SD) ([1]; C-7 50 mg, eyes open, n=6): 4.8 (3.43) | Maximum reduction of SPR: Reduction from predose Day 2, Median ([1]; C-7 50 mg, eyes open, n=6): 6.5 | proportion of subjects with suppression of PPR ([1]; C-7 100 mg dose group): 75% | time to maximum reduction of SPR compared to the other 2 dose groups ([1]; C-7 100 mg dose group): shorter | patients with complete suppression of PPR ([1]; C-7 100 mg dose group (Cohort II), Day 2): 3 out of 4 and 3 of 4 | duration of maintained suppression of PPR ([1]; C-7 100 mg group): 4 h and 3 h | Maximum reduction of SPR: Overall reduction, Mean (SD) ([1]; C-7 100 mg, eye closed, n=4): 7.5 (2.38) | Maximum reduction of SPR: Overall reduction, Median ([1]; C-7 100 mg, eye closed, n=4): 8.5 | Maximum reduction of SPR: Reduction from predose Day 2, Mean (SD) ([1]; C-7 100 mg, eye closed, n=4): 6.5 (2.38) | Maximum reduction of SPR: Reduction from predose Day 2, Median ([1]; C-7 100 mg, eye closed, n=4): 6.5 | Maximum reduction of SPR: Overall reduction, Mean (SD) ([1]; C-7 100 mg, eye closure, n=4): 9.3 (2.22) | Maximum reduction of SPR: Overall reduction, Median ([1]; C-7 100 mg, eye closure, n=4): 10.0 | Maximum reduction of SPR: Reduction from predose Day 2, Mean (SD) ([1]; C-7 100 mg, eye closure, n=4): 8.3 (1.50) | Maximum reduction of SPR: Reduction from predose Day 2, Median ([1]; C-7 100 mg, eye closure, n=4): 9.0 | Maximum reduction of SPR: Overall reduction, Mean (SD) ([1]; C-7 100 mg, eyes open, n=4): 8.8 (2.50) | Maximum reduction of SPR: Overall reduction, Median ([1]; C-7 100 mg, eyes open, n=4): 8.5 | Maximum reduction of SPR: Reduction from predose Day 2, Mean (SD) ([1]; C-7 100 mg, eyes open, n=4): 7.0 (1.41) | Maximum reduction of SPR: Reduction from predose Day 2, Median ([1]; C-7 100 mg, eyes open, n=4): 6.5 | maximum duration of maintenance of suppression of PPR ([1]; C-7 50 and 100 mg dose groups): 7 h | duration of maintained SPR response (maximum duration of maintenance) ([1]; C-7 50 and 100 mg dose groups, patients staying in responding status): 33 h | PD effect of C7 ([1]; Cohort I, C-7 50 mg single oral dose): Suppression of PPR^e; also recorded: Reduction of SPR (≧3) | Effect maintained: reduction of SPR (≧3) ([1]; Cohort I, C-7 50 mg): No (4×) and Yes (2×) | Effect maintained: suppression of PPR ([1]; Cohort I, C-7 50 mg): No (2×) and Yes (2×) | Onset Time of reduction of SPR (≧3) ([1]; Cohort I, C-7 50 mg): 2 h (2×) and 1 h (3×) | Onset Time of suppression of PPR ([1]; Cohort I, C-7 50 mg): 2 h and 3 h and 4 h | PD effect of C7 ([1]; Cohort II, C-7 100 mg single oral dose): Suppression of PPR; also recorded: Reduction of SPR (≧3) | Effect maintained: reduction of SPR (≧3) ([1]; Cohort II, C-7 100 mg): No (3×) and Yes | Effect maintained: suppression of PPR ([1]; Cohort II, C-7 100 mg): Yes (2×) and No | Onset Time of reduction of SPR (≧3) ([1]; Cohort II, C-7 100 mg): 1 h (3×) and 2 h | Onset Time of suppression of PPR ([1]; Cohort II, C-7 100 mg): 2 h (2×) and 3 h | PD effect of C7 ([1]; Cohort III, C-7 15 mg single oral dose): Suppression of PPR^e; also recorded: Reduction of SPR (≧3) | Effect maintained: reduction of SPR (≧3) ([1]; Cohort III, C-7 15 mg): No | Effect maintained: suppression of PPR ([1]; Cohort III, C-7 15 mg): No | Onset Time of reduction of SPR (≧3) ([1]; Cohort III, C-7 15 mg): 1 h | Onset Time of suppression of PPR ([1]; Cohort III, C-7 15 mg): 2 h | patients with reductions of the SPR range by at least 3 steps in at least one eye condition ([1]; Cohorts II and III (100 mg and 15 mg, 7 patients), Day 2): 7 patients | patients who showed suppression of PPR (Table 2 count) ([1]; all dose groups, 13 patients, includes suppression noted already at 0 hours): 9 patients | patients with complete suppression of PPR ([1]; all three dose groups (15, 50, 100 mg)): 7 of the 13 and 7 of 13 | impact of concomitant treatment with selected AEDs on the PD effect of C-7 ([1]; valproate, lamotrigine, levetiracetam, topiramate, zonisamide as concomitant AEDs): did not appear to relevantly impact the PD effect | In vivo orally active [2]: Yes
